Legend:
APJ (Apelin receptor) [1] = molecular target: T1, APJ (Apelin receptor) (Homo sapiens, UniProt P35414); assay: Intracellular calcium assay (Fluo-4 NW); format: cell-based
T1 sequence (P35414 1-380): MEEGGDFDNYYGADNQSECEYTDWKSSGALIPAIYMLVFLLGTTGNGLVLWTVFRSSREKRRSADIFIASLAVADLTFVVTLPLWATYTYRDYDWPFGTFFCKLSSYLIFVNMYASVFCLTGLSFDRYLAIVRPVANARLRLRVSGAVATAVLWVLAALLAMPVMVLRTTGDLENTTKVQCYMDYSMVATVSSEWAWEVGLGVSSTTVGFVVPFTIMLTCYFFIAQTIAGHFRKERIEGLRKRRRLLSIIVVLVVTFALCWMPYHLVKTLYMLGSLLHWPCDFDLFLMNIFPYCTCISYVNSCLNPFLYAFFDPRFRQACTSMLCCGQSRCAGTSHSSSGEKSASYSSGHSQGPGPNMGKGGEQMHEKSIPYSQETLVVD
Experimental: HEK293 cells stably expressing APJ were plated at 10^4 cells per well in 96-well black microplates pretreated with a 0.1 mg/ml solution of poly-D-lysine for 24 h. Calcium fluorescence signals in cells were measured using the Fluo-4 NW calcium assay kit (Thermo Fisher Scientific) according to the manufacturer’s instructions ([Chen et al., 2014]; [Wang et al., 2017]). Before detection, cells were washed twice with assay buffer (1 × HBSS, 20 mM HEPES). One hundred microlitres of the dye loading solution was added to each well of a 96-well plate. Cells were incubated at 37°C in 5% CO2 humidified atmosphere for 30 min, then at room temperature for an additional 30 min. Cells were stimulated with six ligands (100 nM) for 5 min, then calcium signals were immediately measured on a Mithras LB940 plate reader (Berthold Technologies, Bad Wildbad, Germany) with an excitation wavelength of 485 nm and an emission wavelength of 525 nm. Dose response curve: cells were stimulated with different concentrations of six peptides for 30 s, and calcium fluorescence was detected. The calculation of the calcium fluorescence ratio was described previously ([Chen et al., 2014]).
(§1) The concentration-response data for the ligands in various assays were analyzed to determine the biases of the ligands for G protein dependent signaling or β-arrestin dependent signaling, according to a previously published method ([Kenakin et al., 2012]; [Hager et al., 2016]; [Hothersall et al., 2017]). Briefly, the concentration-response data for each ligand were fitted to the Black–Leff operation model to obtain the values of τ and K A, using the following equation: Response=[A]^nτ^nEm/[A]^nτ^n+([A]KA)^n where [A] is the concentration of the agonist, E m is the maximal response of the system, n is the transducer slope, and K A and τ describe the affinity and efficacy of the agonist, respectively. In the data fitting, the reparametrized form of the equation proposed by [Kenakin et al. (2012)] was used: Response=Em/1+exp{nln[1+exp(β1)/[A]]−nβ2} where β 1 and β 2 are the natural logarithm of K A and τ, respectively, and E m was set to 1. Thus, for each concentration-response curve, a non-linear regression was performed to fit the above equation to give β 1 and β 2 (as well as n). Log (τ/K A) values (“transduction coefficients”) for each ligand vs. each pathway were obtained. […] The ΔΔlog (τ/K A), or Log (Bias), which is the logarithm of the bias factor for a given pathway over a reference pathway (here, intracellular calcium release), was calculated for each ligand as Δlog (τ/K A)–Δlog (τ/K A)Calcium. The 95% confidence interval (CI) was expressed as the mean ± standard error; Log (Bias) values, whose 95% CI crosses 0, were considered statistically insignificant.
(§2) The data were analyzed using GraphPad Prism v5.0. All the data are presented as the mean ± SEM. Differences between groups were compared by one-way analysis of variants (ANOVA), followed by post-hoc tests (Tukey’s test), When p < 0.05, the difference was considered significant. All experiments were repeated at least four times. The dose-response curves were generated using non-linear fitting model log (agonist) vs. response (three-parameters), with Hill Slope held to 1, i.e., Y = Bottom + (Top-Bottom)/(1 + 10^(LogEC50-X)).
HEK293 cells stably expressed APJ, and in 30 s, the dose response curve stimulated with six peptides was measured. Data represent mean ± SEM from four independent experiments (Supplementary Table S2). With six peptides (B) stimulation, the dose-response curve of GRK2 recruited to APJ was measured by BRET (at 15 min). p < 0.05 was considered as statistically significant. Data represent mean ± SEM from four independent experiments (Supplementary Table S3).
P<0.05 was considered as statistically significant. Control group (HG, Cells were stimulated with high glucose).

APJ (Apelin receptor) [2] = molecular target: T1, APJ (Apelin receptor); assay: BRET-based cAMP biosensor (CAMYEL) assay; format: cell-based
Experimental: The cAMP concentration was measured using a BRET-based cAMP biosensor ([Barak et al., 2008]; [Ji et al., 2017]) in HEK293 cells transiently co-expressing YFP-Epac-RLuc and APJ. The sensor is composed of an N-terminal truncated variant of EPAC tagged with Rluc and YFP at N-terminal and C-terminal, respectively. […] At 24 h after transfection, cells were digested and plated into a 96-well microplate for 24 h following adding the substrate coelenterazine H into the medium at the final concentration of 5 µM and the nonspecific phosphodiesterase inhibitor IBMX (40 μM) for 20 min, and the cells were stimulated for 10 min with forskolin (10 μM).
(A) A schematic diagram of YFP-cAMP-Rluc fusion expression vector. […] Data represent mean ± SEM from four independent experiments (Supplementary Table S1).
as §1, §2
P<0.05 was considered as statistically significant. Control group (HG, Cells were stimulated with high glucose (Glucose Concentration: 4500 mg/L, HEPES, No Phenol Red). Data represent mean ± SEM from four independent experiments. Statistical analysis (Table S1)

APJ (Apelin receptor) [3] = molecular target: T1, APJ (Apelin receptor); assay: Radioligand competition binding assay, [125I]-apelin-13, HEK-293/APJ membranes; design: APJ membrane preparations were obtained from transiently transfected HEK293 cells; host or cells: HEK293 cells, transiently transfected; membranes prepared; details: [125I]-apelin-13 competition
Experimental: APJ membrane preparations were obtained from transiently transfected HEK293 cells. HEK293 cells were cultured in complete DMEM (DMEM plus 10% FBS) for 24 h, until they reached at least 70% confluence. Transfection reagent containing 20 μg of the APJ expression plasmid was added, and the cells were incubated for another 24 h. The cells were then harvested into 25 ml homogenization buffer (HB) [250 mM sucrose and 25 mM HEPES (pH 7.3); adjusted to pH 7.5 at 4°C and then filtered] supplemented with 250 μL phenylmethylsulfonyl fluoride (PMSF), homogenized using an IKA T25 Ultra Turrax (24,000 rpm), and centrifuged at 6,025 rpm for 15 min at 4°C. […]
The binding reaction was stopped by rapid filtration through polyethyleneimine (PEI)-coated GF/B plates using a cell harvester, and the plates were washed three times with ice-cold wash buffer [50 mM HEPES (pH 7.4), 500 mM NaCl, and 0.1% BSA; filtered and stored at 4°C]. The filtration plates were dried at 37°C for 2 h; 50 μL scintillation cocktail (Perkin Elmer, Wellesley, MA, United States), was added to each well; and the radioactivity was measured using a Perkin Elmer 1450 MicroBeta TriLux Microplate Scintillation and Luminescence Counter.
The binding reaction was stopped, the plates were washed and dried, the scintillation cocktail was added, and the radioactivity was measured as described above.

[4] = Ca2+ (reference pathway), reference ligand Apelin-13

## CSCC[C@H](NC(=O)[C@@H]1CSSC[C@H](NC(=O)[C@H](CC(N)=O)NC(=O)[C@H](Cc2c[nH]cn2)NC(=O)[C@H](CCCCN)NC(=O)[C@H](CCCNC(=N)N)NC(=O)[C@@H](N)CC(C)C)C(=O)N[C@@H](CC(C)C)C(=O)N[C@@H](CCC(N)=O)C(=O)N[C@@H](CCCNC(=N)N)C(=O)N[C@@H](CCCNC(=N)N)C(=O)N1)C(=O)N1CCC[C@H]1C(=O)N[C@@H](CC(C)C)C(=O)N[C@@H](Cc1c[nH]cn1)C(=O)N[C@@H](CO)C(=O)N[C@@H](CCCNC(=N)N)C(=O)N[C@H](C(=O)N1CCC[C@H]1C(=O)N[C@@H](Cc1ccccc1)C(=O)N1CCC[C@H]1C(=O)O)C(C)C [Elabela-21]
APJ (Apelin receptor) [1]; 0.001 nM
  P vs HG, intracellular calcium: P>0.05
APJ (Apelin receptor) [1]; 0.01 nM
  P vs HG, intracellular calcium: P>0.05
APJ (Apelin receptor) [1]; 0.1 nM
  P vs HG, intracellular calcium: P>0.05
APJ (Apelin receptor) [1]; 1 nM
  P vs HG, intracellular calcium: P>0.05
APJ (Apelin receptor) [1]; 10 nM
  P vs HG, intracellular calcium: ^*P<0.05
APJ (Apelin receptor) [1]; 100 nM
  P vs HG, intracellular calcium: ^***P<0.001
APJ (Apelin receptor) [1]; 1000 nM
  P vs HG, intracellular calcium: ^***P<0.001
APJ (Apelin receptor) [1]; [4]
  Bias factor: 1.0
  Log (Bias): 0.0
APJ (Apelin receptor) [1]; Ca2+ pathway, Black–Leff operational model
  log (τ/KA): −1.8
APJ (Apelin receptor) [1]; Ca2+ pathway, relative to Apelin-13
  Δlog (τ/KA): −1.6
APJ (Apelin receptor) [2]; 0.001 nM
  P vs HG, cAMP production: P>0.05
APJ (Apelin receptor) [2]; 0.01 nM
  P vs HG, cAMP production: P>0.05
APJ (Apelin receptor) [2]; 0.1 nM
  P vs HG, cAMP production: P>0.05
APJ (Apelin receptor) [2]; 1 nM
  P vs HG, cAMP production: ^**P<0.01
APJ (Apelin receptor) [2]; 10 nM
  P vs HG, cAMP production: ^***P<0.001
APJ (Apelin receptor) [2]; 100 nM
  P vs HG, cAMP production: ^***P<0.001
APJ (Apelin receptor) [2]; 1000 nM
  P vs HG, cAMP production: ^***P<0.001
APJ (Apelin receptor) [2]; cAMP over Ca2+, reference Apelin-13
  Bias factor: 38.0
APJ (Apelin receptor) [2]; cAMP over Ca2+, reference Apelin-13, footnote a = statistically insignificant
  Log (Bias): 1.6 ± 0.3
APJ (Apelin receptor) [2]; cAMP pathway
  bias over calcium release: 38 fold
APJ (Apelin receptor) [2]; cAMP, Black–Leff operational model
  log (τ/KA): −0.1 ± 0.1
APJ (Apelin receptor) [2]; cAMP, relative to Apelin-13
  Δlog (τ/KA): 0.0 ± 0.2
APJ (Apelin receptor) [3]
  binding affinity (in words): slightly weaker binding affinity than Elabela-32

From PMC7970304, “The Effects of Apelin and Elabela Ligands on Apelin Receptor Distinct Signaling Profiles” (Frontiers in Pharmacology, 2021)
